Laboratory results reported in paper PMC10174618, “Monoterpenoid aryl hydrocarbon receptor allosteric antagonists protect against ultraviolet skin damage in female mice” (Nature Communications, 2023).

Columns and labels:
Experiment in all cases: biochemical
Set-up in all cases: KINOMEscan scanMAX active site-directed competition binding assay, percent of control, 468 kinases
Conditions in all cases: competition binding, percent of control
[1] = target: T1, ABL1(Q252H)-nonphosphorylated (Homo sapiens, UniProt P00519, Q252H)
T1 construct: nonphosphorylated
Summary of the method: (§1)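 Single-concentration screen (100 μM S-carvone) in a competition binding panel of 468 human kinases (KINOMEscan scanMAX); results given as percent of control, hit cutoff 35%.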

[2] = target: CAMK2A (Homo sapiens, UniProt Q9UQM7)
Summary of the method: as §1

[3] = target: T2, CDK4-cyclinD3 (Homo sapiens, UniProt P11802)
T2 construct: cyclinD3
Summary of the method: as §1

[4] = target: CDKL3 (Homo sapiens, UniProt Q8IVW4)
Summary of the method: as §1

[5] = target: CIT (Homo sapiens, UniProt O14578)
Summary of the method: as §1

[6] = target: CSNK1A1 (Homo sapiens, UniProt P48729)
Summary of the method: as §1

[7] = target: CSNK1A1L (Homo sapiens, UniProt Q8N752)
Summary of the method: as §1

[8] = target: CSNK1D (Homo sapiens, UniProt P48730)
Summary of the method: as §1

[9] = target: T3, ERK1 (Homo sapiens, UniProt P27361)
T3 construct: gene MAPK3
Summary of the method: as §1

[10] = target: T4, ERK2 (Homo sapiens, UniProt P28482)
T4 construct: gene MAPK1
Summary of the method: as §1

[11] = target: FLT3(D835V) (Homo sapiens, UniProt P36888, D835V)
Summary of the method: as §1

[12] = target: HCK (Homo sapiens, UniProt P08631)
Summary of the method: as §1

[13] = target: T5, MEK4 (Homo sapiens, UniProt P45985)
T5 construct: gene MAP2K4
Summary of the method: as §1

[14] = target: NEK9 (Homo sapiens, UniProt Q8TD19)
Summary of the method: as §1

[15] = target: NLK (Homo sapiens, UniProt Q9UBE8)
Summary of the method: as §1

[16] = target: PIP5K1A (Homo sapiens, UniProt Q99755)
Summary of the method: as §1

[17] = target: T6, PRP4 (Homo sapiens, UniProt Q13523)
T6 construct: gene PRPF4B
Summary of the method: as §1

[18] = target: T7, SNARK (Homo sapiens, UniProt Q9H093)
T7 construct: gene NUAK2
Summary of the method: as §1

[19] = target: TEC (Homo sapiens, UniProt P42680)
Summary of the method: as §1

[20] = target: TNNI3K (Homo sapiens, UniProt Q59H18)
Summary of the method: as §1

[21] = target: T8, TRKC (Homo sapiens, UniProt Q16288)
T8 construct: gene NTRK3
Summary of the method: as §1

[22] = target: WNK2 (Homo sapiens, UniProt Q9Y3S1)
Summary of the method: as §1

T6 sequence (Q13523 whole entry): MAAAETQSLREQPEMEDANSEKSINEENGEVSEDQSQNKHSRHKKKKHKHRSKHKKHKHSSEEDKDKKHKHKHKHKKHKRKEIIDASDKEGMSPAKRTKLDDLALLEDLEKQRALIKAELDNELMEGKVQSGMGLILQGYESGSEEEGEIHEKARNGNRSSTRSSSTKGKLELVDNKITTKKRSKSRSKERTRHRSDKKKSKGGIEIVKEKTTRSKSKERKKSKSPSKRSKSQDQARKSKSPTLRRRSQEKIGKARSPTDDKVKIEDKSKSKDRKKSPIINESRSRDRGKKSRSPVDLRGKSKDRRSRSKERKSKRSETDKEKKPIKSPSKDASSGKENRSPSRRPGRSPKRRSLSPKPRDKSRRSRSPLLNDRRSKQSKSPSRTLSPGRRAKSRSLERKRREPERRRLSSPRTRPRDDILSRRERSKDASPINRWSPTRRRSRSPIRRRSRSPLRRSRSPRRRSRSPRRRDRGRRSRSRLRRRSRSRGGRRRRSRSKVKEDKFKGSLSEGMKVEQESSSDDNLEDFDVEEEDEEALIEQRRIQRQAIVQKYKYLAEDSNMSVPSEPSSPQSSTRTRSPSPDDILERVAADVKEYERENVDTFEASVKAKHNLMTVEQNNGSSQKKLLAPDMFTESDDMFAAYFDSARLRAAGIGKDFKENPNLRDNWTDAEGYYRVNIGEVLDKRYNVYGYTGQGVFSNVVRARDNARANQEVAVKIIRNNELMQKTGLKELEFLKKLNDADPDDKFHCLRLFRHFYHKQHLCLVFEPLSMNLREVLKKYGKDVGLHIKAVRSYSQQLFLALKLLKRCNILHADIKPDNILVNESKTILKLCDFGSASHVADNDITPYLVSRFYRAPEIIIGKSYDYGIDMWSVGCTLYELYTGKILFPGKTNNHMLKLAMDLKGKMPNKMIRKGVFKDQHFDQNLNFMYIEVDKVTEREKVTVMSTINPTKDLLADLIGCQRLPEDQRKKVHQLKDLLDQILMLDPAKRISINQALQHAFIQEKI
TNNI3K, sequence (Q59H18 whole entry): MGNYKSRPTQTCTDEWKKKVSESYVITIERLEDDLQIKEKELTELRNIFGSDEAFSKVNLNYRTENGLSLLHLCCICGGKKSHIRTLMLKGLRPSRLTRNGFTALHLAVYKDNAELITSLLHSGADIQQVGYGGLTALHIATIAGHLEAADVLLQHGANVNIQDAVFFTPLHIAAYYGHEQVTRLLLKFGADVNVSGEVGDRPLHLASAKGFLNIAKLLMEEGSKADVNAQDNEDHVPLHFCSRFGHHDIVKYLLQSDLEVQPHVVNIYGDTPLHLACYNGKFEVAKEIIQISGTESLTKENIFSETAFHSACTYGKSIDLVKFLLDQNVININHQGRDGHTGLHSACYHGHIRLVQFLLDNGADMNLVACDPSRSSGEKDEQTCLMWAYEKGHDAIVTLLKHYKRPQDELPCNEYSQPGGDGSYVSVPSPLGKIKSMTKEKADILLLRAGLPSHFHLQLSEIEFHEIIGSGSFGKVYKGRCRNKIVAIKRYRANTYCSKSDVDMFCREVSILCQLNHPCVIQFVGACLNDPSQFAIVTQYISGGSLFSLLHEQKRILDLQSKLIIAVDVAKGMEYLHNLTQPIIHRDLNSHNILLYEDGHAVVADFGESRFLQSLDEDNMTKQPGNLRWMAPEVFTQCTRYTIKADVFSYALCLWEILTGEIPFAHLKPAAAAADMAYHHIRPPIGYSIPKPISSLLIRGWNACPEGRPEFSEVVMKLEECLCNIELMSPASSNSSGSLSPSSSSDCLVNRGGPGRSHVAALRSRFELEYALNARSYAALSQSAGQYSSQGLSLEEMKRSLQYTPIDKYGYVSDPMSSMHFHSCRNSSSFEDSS
T4 sequence (P28482 whole entry): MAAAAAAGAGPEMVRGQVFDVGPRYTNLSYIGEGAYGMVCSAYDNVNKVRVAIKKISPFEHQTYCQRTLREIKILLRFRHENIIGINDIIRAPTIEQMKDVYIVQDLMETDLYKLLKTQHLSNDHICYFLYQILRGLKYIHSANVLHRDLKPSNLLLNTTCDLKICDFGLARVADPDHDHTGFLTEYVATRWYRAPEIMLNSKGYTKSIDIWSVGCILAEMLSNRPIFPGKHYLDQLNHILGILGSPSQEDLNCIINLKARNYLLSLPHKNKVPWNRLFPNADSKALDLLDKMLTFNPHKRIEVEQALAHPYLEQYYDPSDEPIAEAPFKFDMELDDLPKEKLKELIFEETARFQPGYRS
CDKL3, sequence (Q8IVW4 whole entry): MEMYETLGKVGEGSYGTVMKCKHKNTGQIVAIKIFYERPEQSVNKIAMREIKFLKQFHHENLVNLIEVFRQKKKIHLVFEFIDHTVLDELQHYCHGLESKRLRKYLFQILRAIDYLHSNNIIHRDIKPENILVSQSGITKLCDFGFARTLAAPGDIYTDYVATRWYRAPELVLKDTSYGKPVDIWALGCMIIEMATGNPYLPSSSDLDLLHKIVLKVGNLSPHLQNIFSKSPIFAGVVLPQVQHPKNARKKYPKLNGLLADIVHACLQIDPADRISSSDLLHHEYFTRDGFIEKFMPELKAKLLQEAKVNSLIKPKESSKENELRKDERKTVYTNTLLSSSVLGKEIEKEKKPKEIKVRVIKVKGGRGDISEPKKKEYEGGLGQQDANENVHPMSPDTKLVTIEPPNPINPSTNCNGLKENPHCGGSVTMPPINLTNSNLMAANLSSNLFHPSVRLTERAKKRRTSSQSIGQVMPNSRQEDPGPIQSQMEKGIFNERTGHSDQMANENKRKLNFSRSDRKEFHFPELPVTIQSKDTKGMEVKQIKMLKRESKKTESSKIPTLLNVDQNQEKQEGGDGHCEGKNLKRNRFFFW
CAMK2A, sequence (Q9UQM7 whole entry): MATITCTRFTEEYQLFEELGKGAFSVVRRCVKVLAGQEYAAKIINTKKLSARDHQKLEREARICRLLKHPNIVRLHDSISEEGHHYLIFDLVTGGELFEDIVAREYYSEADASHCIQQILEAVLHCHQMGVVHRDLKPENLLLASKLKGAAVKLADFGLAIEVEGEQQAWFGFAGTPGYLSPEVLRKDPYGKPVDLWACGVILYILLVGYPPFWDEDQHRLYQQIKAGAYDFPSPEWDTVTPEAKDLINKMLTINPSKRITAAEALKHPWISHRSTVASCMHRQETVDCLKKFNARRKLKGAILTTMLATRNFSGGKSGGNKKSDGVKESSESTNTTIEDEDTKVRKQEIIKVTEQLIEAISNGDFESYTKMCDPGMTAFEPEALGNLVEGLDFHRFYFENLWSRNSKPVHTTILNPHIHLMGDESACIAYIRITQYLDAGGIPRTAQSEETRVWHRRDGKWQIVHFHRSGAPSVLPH
T5 sequence (P45985 whole entry): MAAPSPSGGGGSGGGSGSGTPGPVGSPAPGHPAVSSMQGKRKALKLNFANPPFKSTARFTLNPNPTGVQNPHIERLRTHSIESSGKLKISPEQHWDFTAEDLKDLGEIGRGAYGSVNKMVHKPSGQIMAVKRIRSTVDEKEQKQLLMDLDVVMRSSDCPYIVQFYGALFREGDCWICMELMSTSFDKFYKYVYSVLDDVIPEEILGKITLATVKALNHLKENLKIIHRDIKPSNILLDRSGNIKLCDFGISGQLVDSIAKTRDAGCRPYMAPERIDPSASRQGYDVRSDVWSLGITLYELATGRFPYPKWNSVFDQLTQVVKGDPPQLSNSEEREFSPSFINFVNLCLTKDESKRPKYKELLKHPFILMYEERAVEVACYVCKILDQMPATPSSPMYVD
HCK, sequence (P08631 whole entry): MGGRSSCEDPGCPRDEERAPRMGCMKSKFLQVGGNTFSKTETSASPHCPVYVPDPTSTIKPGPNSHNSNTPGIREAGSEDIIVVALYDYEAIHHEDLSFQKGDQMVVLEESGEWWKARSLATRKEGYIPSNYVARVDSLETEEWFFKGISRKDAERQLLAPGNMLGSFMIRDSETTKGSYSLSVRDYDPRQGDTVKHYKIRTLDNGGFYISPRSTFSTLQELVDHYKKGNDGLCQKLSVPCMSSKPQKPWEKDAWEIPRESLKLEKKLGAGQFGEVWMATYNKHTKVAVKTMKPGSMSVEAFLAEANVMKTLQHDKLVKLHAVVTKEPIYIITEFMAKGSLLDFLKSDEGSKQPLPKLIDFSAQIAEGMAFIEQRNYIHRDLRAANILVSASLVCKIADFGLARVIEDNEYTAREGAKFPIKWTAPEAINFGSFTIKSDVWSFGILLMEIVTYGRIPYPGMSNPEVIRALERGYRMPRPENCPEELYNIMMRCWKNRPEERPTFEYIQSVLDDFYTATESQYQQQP
T8 sequence (Q16288 whole entry): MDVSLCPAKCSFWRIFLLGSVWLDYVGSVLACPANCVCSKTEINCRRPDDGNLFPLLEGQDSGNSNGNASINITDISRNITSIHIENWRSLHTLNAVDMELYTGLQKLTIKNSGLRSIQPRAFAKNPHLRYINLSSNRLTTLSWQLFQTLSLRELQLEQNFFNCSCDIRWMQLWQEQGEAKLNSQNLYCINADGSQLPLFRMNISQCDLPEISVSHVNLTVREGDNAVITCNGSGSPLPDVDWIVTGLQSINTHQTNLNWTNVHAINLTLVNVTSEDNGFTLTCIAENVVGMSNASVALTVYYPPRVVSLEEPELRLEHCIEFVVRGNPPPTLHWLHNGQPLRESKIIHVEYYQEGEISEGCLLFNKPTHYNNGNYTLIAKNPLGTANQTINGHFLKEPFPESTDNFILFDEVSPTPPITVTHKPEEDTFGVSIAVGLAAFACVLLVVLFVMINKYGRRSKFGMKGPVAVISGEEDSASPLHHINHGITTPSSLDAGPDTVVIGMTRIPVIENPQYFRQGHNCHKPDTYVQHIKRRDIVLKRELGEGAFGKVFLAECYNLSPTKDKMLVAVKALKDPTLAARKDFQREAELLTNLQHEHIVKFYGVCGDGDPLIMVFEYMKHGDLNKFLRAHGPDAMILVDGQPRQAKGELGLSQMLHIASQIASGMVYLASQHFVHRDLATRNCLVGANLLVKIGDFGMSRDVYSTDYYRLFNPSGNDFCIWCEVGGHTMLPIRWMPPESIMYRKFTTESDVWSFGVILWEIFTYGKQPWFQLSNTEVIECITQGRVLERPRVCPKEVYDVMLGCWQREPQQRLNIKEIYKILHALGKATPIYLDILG

- remaining binding at 100 µM [1]: 66%
- remaining binding at 100 µM [2]: 79%
- remaining binding at 100 µM [3]: 86%
- remaining binding at 100 µM [4]: 89%
- remaining binding at 100 µM [5]: 81%
- remaining binding at 100 µM [6]: 68%
- remaining binding at 100 µM [7]: 85%
- remaining binding at 100 µM [8]: 68%
- remaining binding at 100 µM [9]: 75%
- remaining binding at 100 µM [10]: 76%
- remaining binding at 100 µM [11]: 77%
- remaining binding at 100 µM [12]: 76%
- remaining binding at 100 µM [13]: 74%
- remaining binding at 100 µM [15]: 81%
- remaining binding at 100 µM [16]: 98%
- remaining binding at 100 µM [17]: 62%
- remaining binding at 100 µM [18]: 81%
- remaining binding at 100 µM [19]: 96%
- remaining binding at 100 µM [20]: 93%
- remaining binding at 100 µM [21]: 82%
- remaining binding at 100 µM [22]: 77%
Compound: C=C(C)[C@H]1CC=C(C)C(=O)C1 [S-carvone]
- remaining binding at 100 µM [14]: 80%
